Reference: ChEMBL document CHEMBL5154863, “Design and synthesis of quinolinium-based derivatives targeting FtsZ for antibacterial evaluation and mechanistic study” (Eur J Med Chem, 2022)
≈ marks a conversion by molar mass, not a printed value.

Tests used:
Assay type in all cases: functional
Settings in all cases: time 20-24 hrs
[1] = test system: Staphylococcus aureus; test: Antibacterial activity against Staphylococcus aureus ATCC 29213 assessed as inhibition of bacterial growth incubated for 20 to 24 hrs by broth micro dilution method
[2] = test system: Staphylococcus epidermidis; test: Antibacterial activity against Staphylococcus epidermidis ATCC 12228 assessed as inhibition of bacterial growth incubated for 20 to 24 hrs by broth micro dilution method
[3] = test system: Bacillus subtilis; test: Antibacterial activity against Bacillus subtilis CMCC (B) 63501 assessed as inhibition of bacterial growth incubated for 20 to 24 hrs by broth micro dilution method
[4] = test system: Enterococcus faecium; test: Antibacterial activity against Enterococcus faecium ATCC 49624 assessed as inhibition of bacterial growth incubated for 20 to 24 hrs by broth micro dilution method
[5] = test system: Enterococcus faecalis; test: Antibacterial activity against Enterococcus faecalis ATCC 29212 assessed as inhibition of bacterial growth incubated for 20 to 24 hrs by broth micro dilution method
[6] = test system: Staphylococcus aureus; test: Antibacterial activity against methicillin-resistant Staphylococcus aureus ATCC 43300 assessed as inhibition of bacterial growth incubated for 20 to 24 hrs by broth micro dilution method
[7] = test system: Staphylococcus aureus; test: Antibacterial activity against methicillin-resistant Staphylococcus aureus ATCC 33592 assessed as inhibition of bacterial growth incubated for 20 to 24 hrs by broth micro dilution method
[8] = test system: Staphylococcus aureus; test: Antibacterial activity against methicillin-resistant Staphylococcus aureus ATCC BAA-1720 assessed as inhibition of bacterial growth incubated for 20 to 24 hrs by broth micro dilution method
[9] = test system: Staphylococcus aureus; test: Antibacterial activity against vancomycin-intermediate Staphylococcus aureus Mu50 assessed as inhibition of bacterial growth incubated for 20 to 24 hrs by broth micro dilution method
[10] = test system: Enterococcus faecium; test: Antibacterial activity against vancomycin resistant Enterococcus faecium ATCC 700221 assessed as inhibition of bacterial growth incubated for 20 to 24 hrs by broth micro dilution method
[11] = test system: Enterococcus faecium; test: Antibacterial activity against vancomycin-resistant Enterococcus faecium clinical isolate assessed as inhibition of bacterial growth incubated for 20 to 24 hrs by broth micro dilution method
[12] = test system: Escherichia coli; test: Antibacterial activity against Escherichia coli ATCC 25922 assessed as inhibition of bacterial growth incubated for 20 to 24 hrs by broth micro dilution method
[13] = test system: Escherichia coli; test: Antibacterial activity against Escherichia coli ATCC 8739 assessed as inhibition of bacterial growth incubated for 20 to 24 hrs by broth micro dilution method
[14] = test system: Escherichia coli; test: Antibacterial activity against NDM-1 expressing Escherichia coli ATCC BAA2469 assessed as inhibition of bacterial growth incubated for 20 to 24 hrs by broth micro dilution method
[15] = test system: Acinetobacter baumannii; test: Antibacterial activity against multi-drug resistant Acinetobacter baumannii ATCC 19606 assessed as inhibition of bacterial growth incubated for 20 to 24 hrs by broth micro dilution method
[16] = test system: Pseudomonas aeruginosa; test: Antibacterial activity against […] Pseudomonas aeruginosa ATCC 27853 assessed as inhibition of bacterial growth incubated for 20 to 24 hrs by broth micro dilution method
[17] = test system: Klebsiella pneumoniae; test: Antibacterial activity against NDM-1 expressing Klebsiella pneumoniae ATCC BAA 2470 assessed as inhibition of bacterial growth incubated for 20 to 24 hrs by broth micro dilution method

Compound | MIC [1] [mg/L] | MIC [2] [mg/L] | MIC [3] [mg/L] | MIC [4] [mg/L] | MIC [5] [mg/L] | MIC [6] [mg/L] | MIC [7] [mg/L] | MIC [8] [mg/L] | MIC [9] [mg/L] | MIC [10] [mg/L] | MIC [11] [mg/L] | MIC [12] [mg/L] | MIC [13] [mg/L] | MIC [14] [mg/L] | MIC [15] [mg/L] | MIC [16] [mg/L] | MIC [17] [mg/L]
CN(C)c1ccc(/C=C/c2cc[n+](C)c3ccccc23)cc1.[I-] | 16 | 16 | 64 | 16 | > 64 |  |  |  |  |  |  |  |  |  |  |  | 
CN(C)c1ccc(/C=C/c2cc(N3CCCC3)[n+](C)c3ccccc23)cc1.[I-] | 4 | 2 | 16 | 16 | 64 | 16 | 16 | 16 | 8 | 8 | 16 | 16 | 32 | 64 | > 64 | > 64 | > 64
CN(C)c1ccc(/C=C/c2cc(N3CCOCC3)c3ccccc3[n+]2C)cc1.[I-] | 32 | 16 | 32 | 8 | > 64 | 64 | 64 | 64 | 32 | 16 | 32 | > 64 | > 64 | > 64 | > 64 | > 64 | > 64
CN[C@H](CC(C)C)C(=O)N[C@H]1C(=O)N[C@@H](CC(N)=O)C(=O)N[C@H]2C(=O)N[C@H]3C(=O)N[C@H](C(=O)N[C@H](C(=O)O)c4cc(O)cc(O)c4-c4cc3ccc4O)[C@H](O)c3ccc(c(Cl)c3)Oc3cc2cc(c3O[C@@H]2O[C@H](CO)[C@@H](O)[C@H](O)[C@H]2O[C@H]2C[C@](C)(N)[C@H](O)[C@H](C)O2)Oc2ccc(cc2Cl)[C@H]1O [VANCOMYCIN] |  | > 64 | 0.25 (≈ 0.173 µM) |  | 2 (≈ 1.38 µM) |  |  |  | 32 (≈ 22.1 µM) | 1020 (≈ 707 µM) | > 64 | > 64 | > 64 | > 64 | > 64 | > 64 | > 64
CCCNc1cc(/C=C/c2ccc(N(C)C)cc2)c2ccccc2[n+]1C.[I-] | > 64 | 32 | 16 | 32 | 64 | 32 | > 64 | 16 | 32 | 16 | 16 | > 64 | > 64 | > 64 | > 64 | > 64 | > 64
CN(C)c1ccc(/C=C/c2ccc3ccccc3[n+]2C)cc1.[I-] | 16 | 16 | 64 | 8 | > 64 |  |  |  |  |  |  |  |  |  |  |  | 
O=C(O)c1cn(C2CC2)c2cc(N3CCNCC3)c(F)cc2c1=O [CIPROFLOXACIN] | 0.25 (≈ 0.754 µM) | 1 (≈ 3.02 µM) | 0.25 (≈ 0.754 µM) | 32 (≈ 96.6 µM) | 4 (≈ 12.1 µM) | 2 (≈ 6.04 µM) |  | > 64 | 1 (≈ 3.02 µM) | > 64 |  |  | < 0.125 | > 64 |  | 1 (≈ 3.02 µM) | > 64
CN(C)c1ccc(/C=C/c2cc(NCCCc3ccccc3)[n+](C)c3ccccc23)cc1.[I-] | 4 | 4 | 2 | 4 | 4 | 4 | 4 | 4 | 4 | 4 | 4 | > 64 | > 64 | > 64 | > 64 | > 64 | > 64
CC1(C)S[C@@H]2[C@H](NC(=O)[C@H](N)c3ccccc3)C(=O)N2[C@H]1C(=O)O [AMPICILLIN] | > 64 | > 64 | 4 (≈ 11.4 µM) | 2 (≈ 5.72 µM) | 1 (≈ 2.86 µM) | > 64 | 64 (≈ 183 µM) | > 64 | 0.125 (≈ 0.358 µM) | 0.25 (≈ 0.715 µM) | > 64 |  | 16 (≈ 45.8 µM) | > 64 | > 64 | > 64 | > 64
